Patent US6559140B2 (Abbott Laboratories, priority 2000, dated 2003)

Target: H3 receptor (Rattus norvegicus, UniProt Q9QYN8)
Experiment: H3 receptor binding, (3H)-N-α-methylhistamine displacement in rat cortical membranes
Details: male Sprague-Dawley rat brain cortical membranes, 30 minutes at 25° C., Cheng-Prusoff, geometric mean values of 2-10 separate experiments
Experimental: Briefly, male Sprague-Dawley rat brain cortices were homogenized (1 g tissue/10 mL buffer) in 50 mM Tris-HCl/5 mM EDTA containing protease inhibitor cocktail (Calbiochem) using a polytron set at 20,500 rpm. Homogenates were centrifuged for 20 minutes at 40,000×g. The supernatant was decanted, and pellets were weighed. The pellet was resuspended by polytron homogenization in 40 mL 50 mM Tris-HCl/5 mM EDTA with protease inhibitors and centrifuged for 20 minutes at 40,000×g. […] Test compounds were added to the incubation mixtures prior to initiating the incubation assay by addition of the membranes. Thioperamide (3 μM) was used to determine nonspecific binding. Binding incubations were conducted for 30 minutes at 25° C. and terminated by addition of 2 mL of ice cold 50 mM Tris-HCl (H 7.7) and filtration through 0.3% polyethylenimine-soaked Unifilter plates (Packard). These filters were washed 4 additional times with 2 mL of ice-cold 50 mM Tris-HCl and dried for 1 hour. Radioactivity was determined using liquid scintillation counting techniques. Results were analyzed by Hill transformation and Ki values were determined using the Cheng-Prusoff equation.

Chain of H3 receptor (Q9QYN8 1-397 isoform Q9QYN8-3): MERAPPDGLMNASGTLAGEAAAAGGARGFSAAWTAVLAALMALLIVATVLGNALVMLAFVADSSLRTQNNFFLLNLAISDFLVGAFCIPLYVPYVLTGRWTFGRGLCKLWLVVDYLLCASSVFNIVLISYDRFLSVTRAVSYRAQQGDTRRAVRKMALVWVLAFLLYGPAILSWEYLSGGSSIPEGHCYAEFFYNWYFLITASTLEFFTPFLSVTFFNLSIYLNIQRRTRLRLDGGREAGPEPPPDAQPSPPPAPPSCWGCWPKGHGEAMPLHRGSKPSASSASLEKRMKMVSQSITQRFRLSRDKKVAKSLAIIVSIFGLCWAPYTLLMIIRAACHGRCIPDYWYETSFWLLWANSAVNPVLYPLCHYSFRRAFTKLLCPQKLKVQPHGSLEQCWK

Row | SMILES | Ki [nM]
1 | CC(C)N[C@H](C)C(=O)N1CCN(CCCOc2ccc(C(=O)C3CC3)cc2)CC1 [Example 139, Cyclopropyl(4-(3-(4-((2R)-2-(isopropylamino)propanoyl)-1-piperazinyl)propoxy)phenyl)methanone] | 7.29
2 | N#Cc1ccc(-c2ccc(OCCN3CCN(C(=O)[C@@H]4CCCN4)CC3)cc2)cc1 [Example 140, 4′-(2-(4-((2S)-pyrrolidinylcarbonyl)-1-piperazinyl)ethoxy)(1,1′-biphenyl)-4-carbonitrile] | 818
3 | C[C@H](NC(=O)OC(C)(C)C)c1nc(-c2ccc(OCCCN3CCCN(C(=O)[C@@H](C)NC(=O)c4ccco4)CC3)cc2F)no1 [Example 146, Tert-butyl (1S)-1-{3-[2-fluoro-4-(3-{4-[(2R)-2-(2-furoylamino)propanoyl]-1,4-diazepan-1-yl}propoxy)phenyl]-1,2,4-oxadiazol-5-yl}ethylcarbamate] | 9.03
4 | C[C@@H](NC(=O)c1ccco1)C(=O)N1CCCN(CCCOc2ccc(-c3noc(-c4ccncc4)n3)c(F)c2)CC1 [Example 150, N-{(1R)-2-[4-(3-{3-fluoro-4-[5-(4-pyridinyl)-1,2,4-oxadiazol-3-yl]phenoxy}propyl)-1,4-diazepan-1-yl]-1-methyl-2-oxoethyl}-2-furamide] | 12.6
5 | N#Cc1ccc(C(=O)NCCC(=O)N2CCN(CCCOc3ccc(-c4noc(-c5ccccc5)n4)c(F)c3)CC2)cc1 [Example 153, 4′-cyano-N-[3-(4-{3-[3-fluoro-4-(5-phenyl-1,2,4-oxadiazol-3-yl)phenoxy]propyl}-1-piperazinyl)-3-oxopropyl]benzamide] | 26.1
6 | O=C(NCCC(=O)N1CCN(CCCOc2ccc(-c3noc(-c4ccccc4)n3)c(F)c2)CC1)c1ccsc1 [Example 154, N-[3-(4-{3-[3-fluoro-4-(5-phenyl-1,2,4-oxadiazol-3-yl)phenoxy]propyl}-1-piperazinyl)-3-oxopropyl]-3-thiophenecarboxamide] | 25
7 | O=C(NCCC(=O)N1CCN(CCCOc2ccc(-c3noc(-c4ccccc4)n3)c(F)c2)CC1)[C@H]1CCCO1 [Example 155, (2R)-N-[3-(4-{3-[3-fluoro-4-(5-phenyl-1,2,4-oxadiazol-3-yl)phenoxy]propyl}-1-piperazinyl)-3-oxopropyl]tetrahydro-2-furancarboxamide] | 17.1
8 | Cc1cc(C)c(C(=O)NCCC(=O)N2CCN(CCCOc3ccc(-c4noc(-c5ccccc5)n4)c(F)c3)CC2)s1 [Example 156, N-[3-(4-{3-[3-fluoro-4-(5-phenyl-1,2,4-oxadiazol-3-yl)phenoxy]propyl}-1-piperazinyl)-3-oxopropyl]-3,5-dimethyl-2-thiophenecarboxamide] | 13.7
9 | Cc1cc(C(=O)NCCC(=O)N2CCN(CCCOc3ccc(-c4noc(-c5ccccc5)n4)c(F)c3)CC2)c(C)o1 [Example 157, N-[3-(4-{3-[3-fluoro-4-(5-phenyl-1,2,4-oxadiazol-3-yl)phenoxy]propyl}-1-piperazinyl)-3-oxopropyl]-2,5-dimethyl-3-furamide] | 46.1
10 | O=C(NCCC(=O)N1CCN(CCCOc2ccc(-c3noc(-c4ccccc4)n3)c(F)c2)CC1)C1CCCC1 [Example 158, N-[3-(4-{3-[3-fluoro-4-(5-phenyl-1,2,4-oxadiazol-3-yl)phenoxy]propyl}-1-piperazinyl)-3-oxopropyl]cyclopentanecarboxamide] | 11.7
11 | C[C@@H](NC(=O)c1ccno1)C(=O)N1CCN(CCCOc2ccc(-c3noc(-c4ccccc4)n3)c(F)c2)CC1 [Example 162, N-[(1R)-2-(4-{3-[3-fluoro-4-(5-phenyl-1,2,4-oxadiazol-3-yl)phenoxy]propyl}-1-piperazinyl)-1-methyl-2-oxoethyl]-5-isoxazolecarboxamide] | 13
12 | C[C@@H](NC(=O)[C@@H]1CCCO1)C(=O)N1CCN(CCCOc2ccc(-c3noc(-c4ccccc4)n3)c(F)c2)CC1 [Example 163, (2S)-N-[(1R)-2-(4-{3-[3-fluoro-4-(5-phenyl-1,2,4-oxadiazol-3-yl)phenoxy]propyl}-1-piperazinyl)-1-methyl-2-oxoethyl]tetrahydro-2-furancarboxamide] | 8.35

Compounds with a lower Ki, results first:

Row | Ki [nM] | SMILES
13 | 0.208 | N#Cc1ccc(-c2ccc(OCCCN3CCCN(C(=O)[C@@H](Cc4cscn4)NC(=O)c4ccco4)CC3)cc2)cc1 [Example 137, N-((1R)-2-(4-(3-((4′-cyano(1,1′-biphenyl)-4-yl)oxy)propyl)-1,4-diazepan-1-yl)-2-oxo-1-(1,3-thiazol-4-ylmethyl)ethyl)-2-furamide]
14 | 0.996 | C[C@@H](N)C(=O)N1CCN(CCCOc2ccc(C(=O)C3CC3)cc2)CC1 [Example 138, (4-(3-(4-((2R)-2-aminopropanoyl)-1-piperazinyl)propoxy)phenyl)(cyclopropyl)methanone]
15 | 2.34 | CCCc1nc(-c2ccc(OCCCN3CCCN(C(=O)[C@@H](C)NC(=O)c4ccco4)CC3)cc2F)no1 [Example 141, N-[(1R)-2-(4-{3-[3-fluoro-4-(5-propyl-1,2,4-oxadiazol-3-yl)phenoxy]propyl}-1,4-diazepan-1-yl)-1-methyl-2-oxoethyl]-2-furamide]
16 | 0.72 | CC(C)CCc1nc(-c2ccc(OCCCN3CCCN(C(=O)[C@@H](C)NC(=O)c4ccco4)CC3)cc2F)no1 [Example 142, N-[(1R)-2-(4-{3-[3-fluoro-4-(5-isopentyl-1,2,4-oxadiazol-3-yl)phenoxy]propyl}-1,4-diazepan-1-yl)-1-methyl-2-oxoethyl]-2-furamide]
17 | 4 | CC(C)OCc1nc(-c2ccc(OCCCN3CCCN(C(=O)[C@@H](C)NC(=O)c4ccco4)CC3)cc2F)no1 [Example 143, N-{(1R)-2-[4-(3-{3-fluoro-4-[5-(isopropoxymethyl)-1,2,4-oxadiazol-3-yl]phenoxy}propyl)-1,4-diazepan-1-yl]-1-methyl-2-oxoethyl}-2-furamide]
18 | 1.36 | C[C@@H](NC(=O)c1ccco1)C(=O)N1CCCN(CCCOc2ccc(-c3noc(C4CCCC4)n3)c(F)c2)CC1 [Example 144, N-[(1R)-2-(4-{3-[4-(5-cyclopentyl-1,2,4-oxadiazol-3-yl)-3-fluorophenoxy]propyl}-1,4-diazepan-1-yl)-1-methyl-2-oxoethyl]-2-furamide]
19 | 1.68 | C[C@@H](NC(=O)c1ccco1)C(=O)N1CCCN(CCCOc2ccc(-c3noc(-c4ccoc4)n3)c(F)c2)CC1 [Example 147, N-{(1R)-2-[4-(3-{3-fluoro-4-[5-(3-furyl)-1,2,4-oxadiazol-3-yl]phenoxy}propyl)-1,4-diazepan-1-yl]-1-methyl-2-oxoethyl}-2-furamide]
20 | 3.94 | C[C@@H](NC(=O)c1ccco1)C(=O)N1CCCN(CCCOc2ccc(-c3noc(-c4cccs4)n3)c(F)c2)CC1 [Example 148, N-{(1R)-2-[4-(3-{3-fluoro-4-[5-(2-thienyl)-1,2,4-oxadiazol-3-yl]phenoxy}propyl)-1,4-diazepan-1-yl]-1-methyl-2-oxoethyl}-2-furamide]
21 | 6.24 | C[C@@H](NC(=O)c1ccco1)C(=O)N1CCCN(CCCOc2ccc(-c3noc(-c4nccs4)n3)c(F)c2)CC1 [Example 149, N-{(1R)-2-[4-(3-{3-fluoro-4-[5-(1,3-thiazol-2-yl)-1,2,4-oxadiazol-3-yl]phenoxy}propyl)-1,4-diazepan-1-yl]-1-methyl-2-oxoethyl}-2-furamide]
22 | 4.29 | C[C@@H](NC(=O)c1ccco1)C(=O)N1CCCN(CCCOc2ccc(-c3noc(-c4ccccc4)n3)c(F)c2)CC1 [Example 151, N-[(1R)-2-(4-{3-[3-fluoro-4-(5-phenyl-1,2,4-oxadiazol-3-yl)phenoxy]propyl}-1,4-diazepan-1-yl)-1-methyl-2-oxoethyl]-2-furamide]
23 | 1.01 | C[C@@H](NC(=O)c1ccco1)C(=O)N1CCCN(CCCOc2ccc(-c3noc(CCc4ccccc4)n3)c(F)c2)CC1 [Example 152, N-{(1R)-2-[4-(3-{3-fluoro-4-[5-(2-phenylethyl)-1,2,4-oxadiazol-3-yl]phenoxy}propyl)-1,4-diazepan-1-yl]-1-methyl-2-oxoethyl}-2-furamide]
24 | 4.98 | C[C@@H](NC(=O)c1cccs1)C(=O)N1CCN(CCCOc2ccc(-c3noc(-c4ccccc4)n3)c(F)c2)CC1 [Example 159, N-[(1R)-2-(4-{3-[3-fluoro-4-(5-phenyl-1,2,4-oxadiazol-3-yl)phenoxy]propyl}-1-piperazinyl)-1-methyl-2-oxoethyl]-2-thiophenecarboxamide]
25 | 2.29 | C[C@@H](NC(=O)c1cccnc1)C(=O)N1CCN(CCCOc2ccc(-c3noc(-c4ccccc4)n3)c(F)c2)CC1 [Example 160, N-[(1R)-2-(4-{3-[3-fluoro-4-(5-phenyl-1,2,4-oxadiazol-3-yl)phenoxy]propyl}-1-piperazinyl)-1-methyl-2-oxoethyl]nicotinamide]
26 | 2.41 | C[C@@H](NC(=O)c1ccco1)C(=O)N1CCN(CCCOc2ccc(-c3noc(-c4ccccc4)n3)c(F)c2)CC1 [Example 161, N-[(1R)-2-(4-{3-[3-fluoro-4-(5-phenyl-1,2,4-oxadiazol-3-yl)phenoxy]propyl}-1-piperazinyl)-1-methyl-2-oxoethyl]-2-furamide]
27 | 6.37 | C[C@@H](NC(=O)CCN1CCOCC1)C(=O)N1CCN(CCCOc2ccc(-c3noc(-c4ccccc4)n3)c(F)c2)CC1 [Example 164, N-[(1R)-2-(4-{3-[3-fluoro-4-(5-phenyl-1,2,4-oxadiazol-3-yl)-phenoxy]propyl}-1-piperazinyl)-1-methyl-2-oxoethyl]-3-(4-morpholinyl)propanamide]
